# Patent publication US20260297070A1, “CYCLIC [COMPOUND LEFT OUT] WRN INHIBITORS” (Nimbus Wadjet, Inc., priority 2023, published 2026)
# pIC50: −log10 of the molar value.
# Target: T1, human Werner helicase (WRN-BV08, Uniprot Q14191, amino acids 517-1235 with L1074F point mutation) (Homo sapiens, UniProt Q14191, L1074F)
# T1 construct: Uniprot Q14191, amino acids 517-1235 with L1074F point mutation; TEV-cleavable 8×His (C, cleaved yes); made in house; host or cells: Sf9 insect cells (baculovirus)
# Assay: WRN (BV08) ADP-Glo Assay
# Assay type: biochemical
# Settings: 0.15 nM WRN, 5 μM ATP, 0.1 nM DNA duplex, 15 min preincubation, 60 min at 25° C., pH 7.5, 1% DMSO; read-out: ADP-Glo_hWRN_IC50
# Description: Example 2: WRN (BV08) ADP-Glo Assay Protocol
# Bovine skin gelatin (BSG), dimethyl sulfoxide (DMSO), Pluronic F-127 and Tris(2-carboxyethyl)phosphine hydrochloride solution (TCEP) were purchased from Sigma-Aldrich at the highest level of purity possible. Bicine buffer solution was purchased from Alfa Aesar and compound NSC-617145 was purchased from Tocris. DNA duplex was synthesized at BGI (Shenzhen, China) and was composed of strand 1 with the sequence 5′-[…]-3′ (SEQ ID NO.: 1) and strand 2 with the sequence 5′-[…]-3′ (SEQ ID NO.: 2). DNA strands were annealed by heating to 95° C. for 5 minutes followed by slow cooling to room temperature. Compounds in 100% DMSO (0.1 μl) were spotted into a 384-well white polystyrene Optiplate-384 (Perkin Elmer) assay plate using a LabCyte Echo 550 (Agilent). DMSO (0.1 μl) was added to columns 12, rows A-H and column 24, rows I-P for the maximum signal control. Compound NSC-617145 (0.1 μl) was added to columns 12, rows I-P and 24, rows A-H for the minimum signal control (100% inhibition). Compounds/DMSO were preincubated for 15 minutes at 25° C. with 5 uL 2×WRN (BV08), prepared as described below, in assay buffer containing 20 mM Bicine (pH=7.5), 1 mM MgCl2, 10 mM KCl, 0.1% Pluronic F-127, 0.005% BSG, 1 mM TCEP. The reaction was initiated by the addition of 5 μl 2× substrate mixture in assay buffer and incubated for 60 minutes at 25° C. The final concentrations of the assay components were 0.15 nM WRN, 5 μM ATP, and 0.1 nM DNA duplex. The final DMSO concentration was 1% and the reference compound concentration (NSC-617145) used for the minimal signal control was 20 μM. The reaction was stopped by the addition of the ADP-Glo Kit components (Promega) as directed and the relative luminescence units (RLU) were read on an Envision 2104 (Perkin Elmer).
# % Inhibition Calculation:
# Where RLU=relative luminescence units, sample=signal in sample well, and MIN and MAX are the respective minimum and maximum signal controls.
# Four-Parameter IC50 Fit Equation:
# Where top and bottom are normally allowed to float but may be fixed at 100 or 0 respectively in a 3-parameter fit. Y is the % inhibition and X is the compound concentration.
# Molecular Biology and virus production. The DNA encoding human Werner helicase (Uniprot Q14191, amino acids 517-1235 with L1074F point mutation) was generated with codon-optimization for E. coli expression and subcloned into the pFastBac vector with a TEV cleavable 8×His tag (WRN-BV08). The baculovirus from the expression plasmid WRN-BV08 was generated from transfection and amplification following the manufacturer's instructions.
# Sf9 cells grown in SF900II media were infected with 1:200 WRN-BV08 P2 virus and incubated for protein expression for 72 h at 27° C. The WRN protein was purified using the following protocol. The cell pellets were thawed and resuspended in buffer A (50 mM Tris, pH 7.5, 500 mM NaCl, 1 mM TCEP, 10% Glycerol) supplemented with 0.5% CHAPS, 1 mM [COMPOUND LEFT OUT], 1 μg/mL Leupeptin, 1 μg/mL Pepstatin, and the Pierce Universal Nuclease and cocktail tablet. Cleared lysates were loaded onto a Ni Sepharose™ excel column and washed with buffer A and bound protein was eluted with buffer A supplemented with 300 mM imidazole. The eluted protein was dialyzed against buffer A and digested by His-tagged TEV (1:5 ratio) overnight at 4° C. ZnCl2 was added into the sample at final 15 μM before loading onto a second Ni Sepharose™ excel column. Untagged WRN protein was eluted from the column with buffer A supplemented with 20 mM imidazole, dialyzed overnight into buffer B (50 mM Tris, pH 7.5, 1 mM TCEP, 10% Glycerol) supplemented with 150 mM NaCl and loaded onto a Heparin column. Proteins were eluted with a step gradient of buffer B supplemented with 150 mM, 200 mM, 300 mM and 500 mM NaCl. […]
# T1 sequence (Q14191 with tags, fused parts or gaps L1074F limits assumed): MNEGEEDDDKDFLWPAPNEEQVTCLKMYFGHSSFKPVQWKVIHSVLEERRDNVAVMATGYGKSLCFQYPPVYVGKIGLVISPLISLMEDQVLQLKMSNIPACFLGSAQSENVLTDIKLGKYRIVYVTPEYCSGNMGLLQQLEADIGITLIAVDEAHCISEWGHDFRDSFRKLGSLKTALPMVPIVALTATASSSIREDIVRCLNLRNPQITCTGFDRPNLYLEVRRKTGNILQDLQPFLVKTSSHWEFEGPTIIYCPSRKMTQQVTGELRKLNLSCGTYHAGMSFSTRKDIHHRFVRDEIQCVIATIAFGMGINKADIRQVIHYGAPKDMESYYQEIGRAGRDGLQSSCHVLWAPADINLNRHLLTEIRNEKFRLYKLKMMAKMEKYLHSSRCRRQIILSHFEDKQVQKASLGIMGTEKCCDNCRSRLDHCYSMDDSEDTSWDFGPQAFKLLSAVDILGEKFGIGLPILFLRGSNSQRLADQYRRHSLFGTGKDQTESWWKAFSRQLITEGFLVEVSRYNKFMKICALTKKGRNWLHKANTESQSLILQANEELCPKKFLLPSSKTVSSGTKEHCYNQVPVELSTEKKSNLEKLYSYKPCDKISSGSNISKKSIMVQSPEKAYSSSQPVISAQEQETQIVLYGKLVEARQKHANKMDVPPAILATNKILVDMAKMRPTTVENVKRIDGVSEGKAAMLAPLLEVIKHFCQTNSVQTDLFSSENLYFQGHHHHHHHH
row,Compound,pIC50
1,"COC(C(=O)N(Cc1ccncc1)C1C=CS(=O)(=O)C1)c1ccc(-c2ccc(F)cc2)cc1 (single isomer, unassigned) [I-72, (2R*)-N-[(3R**)-1,1-dioxo-2,3-dihydro-1lambda6-thiophen-3-yl]-2-{4′-fluoro-[1,1′-biphenyl]-4-yl}-2-methoxy-N-[(pyridin-4-yl)methyl]acetamide]",> 6.30
2,"O=C(Cc1ccc(-n2cccc2)cc1F)N(Cc1ccncc1)C1C=CS(=O)(=O)C1 (single isomer, unassigned) [I-127]",5.30 to 6.30
3,"COc1cc(CN(C(=O)Cc2ccc(-c3ccc(F)cc3O)nc2)C2C=CS(=O)(=O)C2)ccn1 (single isomer, unassigned) [I-130]",5.30 to 6.30
4,"O=C(Cn1cc(-c2ccccc2)cn1)N(Cc1ccncc1)C1C=CS(=O)(=O)C1 (single isomer, unassigned) [I-133]",5.30 to 6.30
5,"O=C(Cc1ccc(-n2cccc2)cc1)N(Cc1ccncc1)C1C=CS(=O)(=O)C1 (single isomer, unassigned) [I-193]",5.30 to 6.30
6,"COC(C(=O)N(Cc1ccnc(C(C)(C)O)c1)C1C=CS(=O)(=O)C1)c1ccc(-c2ccc(F)cc2)cc1F (single isomer, unassigned) [I-199, (2R*)-2-{3,4′-difluoro-[1,1′-biphenyl]-4-yl}-N-[(3R**)-1,1-dioxo-2,3-dihydro-1lambda6-thiophen-3-yl]-N-{[2-(2-hydroxypropan-2-yl)pyridin-4-yl]methyl}-2-methoxyacetamide]",5.30 to 6.30
7,"COc1cc(CN(C(=O)C(C(=O)N(C)C)c2ccc(-c3ccc(F)cc3)cc2F)C2C=CS(=O)(=O)C2)ccn1 (single isomer, unassigned) [I-235, (2R**)-2-{3,4′-difluoro-[1,1′-biphenyl]-4-yl}-N-[(3R*)-1,1-dioxo-2,3-dihydro-1lambda6-thiophen-3-yl]-N-[(2-methoxypyridin-4-yl)methyl]-N′,N′-dimethylpropanediamide]",5.00 to 5.30
8,"CN(C)C(=O)C(C(=O)N(Cc1ccnc(C(C)(C)O)c1)C1C=CS(=O)(=O)C1)c1ccc(-c2ccc(F)cc2)cc1F (single isomer, unassigned) [I-237, (2R**)-2-{3,4′-difluoro-[1,1′-biphenyl]-4-yl}-N-[(3R*)-1,1-dioxo-2,3-dihydro-1lambda6-thiophen-3-yl]-N-{[2-(2-hydroxypropan-2-yl)pyridin-4-yl]methyl}-N′,N′-dimethylpropanediamide]",5.00 to 5.30
9,"O=C(Cc1ccc(S(F)(F)(F)(F)F)cc1)N(Cc1nc(C2CC2)cs1)C1C=CS(=O)(=O)C1 (single isomer, unassigned) [I-253]",4.30 to 5.00
10,"CN(C)C(=O)C(C(=O)N(Cc1ccnc(C(C)(C)O)c1)C1C=CS(=O)(=O)C1)c1ccc(-c2ccc(F)cc2)cc1F (single isomer, unassigned) [I-258, (2R**)-2-{3,4′-difluoro-[1,1′-biphenyl]-4-yl}-N-[(3R*)-1,1-dioxo-2,3-dihydro-1lambda6-thiophen-3-yl]-N-{[2-(2-hydroxypropan-2-yl)pyridin-4-yl]methyl}-N′,N′-dimethylpropanediamide]",5.00 to 5.30
11,"O=C(Cc1ccc(-n2cccc2)cc1)N(Cc1ccccc1)C1C=CS(=O)(=O)C1 (single isomer, unassigned) [I-262]",5.00 to 5.30
12,"CN(C)C(=O)C(C(=O)N(Cc1ccnc(C(C)(C)O)c1)C1C=CS(=O)(=O)C1)c1ccc(-c2ccc(F)cc2)cc1 (single isomer, unassigned) [I-264, (2R**)-N-[(3R*)-1,1-dioxo-2,3-dihydro-1lambda6-thiophen-3-yl]-2-{4′-fluoro-[1,1′-biphenyl]-4-yl}-N-{[2-(2-hydroxypropan-2-yl)pyridin-4-yl]methyl}-N′,N′-dimethylpropanediamide]",5.00 to 5.30
13,"COc1cc(CN(C(=O)C(C(=O)N(C)C)c2ccc(-c3ccc(F)cc3)cc2F)C2C=CS(=O)(=O)C2)ccn1 (single isomer, unassigned) [I-267, (2R**)-2-{3,4′-difluoro-[1,1′-biphenyl]-4-yl}-N-[(3R*)-1,1-dioxo-2,3-dihydro-1lambda6-thiophen-3-yl]-N-[(2-methoxypyridin-4-yl)methyl]-N′,N′-dimethylpropanediamide]",4.30 to 5.00
